Reference: paper PMC8042727, “Apoptosis-like cell death upon kinetoplastid induction by compounds isolated from the brown algae Dictyota spiralis” (Parasites & Vectors, 2021)

Legend:
Assay type in all cases: cell-based
[1] = system: Leishmania amazonensis promastigotes; assay: Mitochondrial membrane potential (JC-1); settings: L. amazonensis, IC90, 24 h, relative to negative control
Protocol: Promastigotes of L. amazonensis (2 × 10^6 cells/ml) and epimastigotes (5 × 10^5cells/ml) of T. cruzi were incubated for 24 h in the presence of the compounds to be tested, at IC90 and 26 °C, following which the cells were centrifuged, resuspended and transferred to black bottom 96-well plate. A 10-μl aliquot of JC-1 reagent (JC-1 Mitochondrial Membrane Potential Assay Kit; Cayman Chemical, Ann Arbor, MI, USA) was added to each well and the plates were incubated for 30 min. The switch of fluorescence from red to green emitted by both forms of the dye (monomer and aggregate) was measured using the Enspire microplate reader (PerkinElmer) at excitation/emission wavelengths of 560/595 and 485/535 for red and green, respectively; the decrease of the ratio was calculated as the percentage relative to the negative control. Cells images were captured using the Evos cell imaging system (Thermo Fisher Scientific), which is a fully integrated digital inverted microscope, at a magnification of ×40 and ×100. Untreated cells are used as the negative control, and miltefosine and benznidazole were used as the positive control.
Disruption of mitochondrial functions induced by the incubation of L. amazonensis and T. cruzi with compounds 1–3 was evaluated using the mitochondrial membrane potential as a measure. JC-1 dye was used in this assay. In the case of normal mitochondrial membrane potential, the reactive dye will form aggregates that emit red fluorescence; a collapsed potential induces the monomeric form with green fluorescence. This parameter is expressed as the absolute red/green ratio of fluorescence. We considered the values of the negative controls to be the normal values, and therefore the collapse of mitochondrial membrane potential is expressed as a percentage (see Fig. 4a). This parameter is involved in energy storage and is an important indicator of cell health and viability.

[2] = system: Trypanosoma cruzi epimastigotes (Y strain); assay: In vitro evaluation on T. cruzi epimastigotes (AlamarBlue, 72 h); settings: for IC50: 72 h, read-out: IC50: epimastigote; for IC90: nonlinear regression of AlamarBlue curve, read-out: IC90 Trypanosoma cruzi: epimastigote
Protocol: Experiments including in vitro activity assays of isolated compounds 1–3 were performed against the promastigote and amastigote stages of Leishmania amazonensis (MHOM/BR/77/LTB0016) and the epimastigote stage of Trypanosoma cruzi (Y strain). Promastigotes of L. amazonensis were cultured in Schneider’s medium (Sigma-Aldrich, St. Louis, MO, USA). Typanosoma cruzi strain Y was cultured in liver Infusion tryptose (LIT) medium. The three molecules 1-3 were tested against epimastigotes of T. cruzi. Briefly, the molecules were dissolved in DMSO in 96-well plates and a serially diluted concentration was made in 100 μl of LIT medium supplemented with 10% heat-inactivated FBS. In all tests, a maximum of 1% DMSO was used to dissolve the highest dose of the compounds without inducing any effects on the parasites; epimastigotes in the logarithmic growth phase were then counted, adjusted to 5 × 10^5 cells/ml, distributed on the previous 96-well plate and incubated at 27 °C for 72 h. The plate was observed under an inverted microscope after 72 h of incubation and analyzed statistically as described for the leishmanicidal test. Hoechst dye is a blue-fluorescent dye that stains condensed chromatin of apoptotic cells. To detect DNA condensation, the chromatin condensation/dead cell apoptosis kit was used (Invitrogen, Thermo Fisher Scientific, Waltham, MA, USA). Cells were incubated in the presence of the compounds to be tested at IC90. The IC90 values were determined using nonlinear regression of the AlamarBlue® curve. After 24 h of incubation, cells were harvested and resuspended in medium, following which 1 μl of Hoechst 33342 stock solution was added to parasites and incubated for 20 min. Results were analyzed by cell imaging using the Evos FL cell imaging system (Thermo Fisher Scientific). The experiments were repeated using a double-stain apoptosis detection kit (Hoechst 33342/PI; Thermo Fisher Scientific). […] A positive control was also tested: miltefosine (L. amazonensis) and benznidazole (T. cruzi).

[3] = system: Leishmania amazonensis promastigotes; assay: Anti-promastigotes assay (AlamarBlue, 72 h); settings: for IC50: 72 h, read-out: IC50: promastigote; for IC90: nonlinear regression of AlamarBlue curve, read-out: IC90 Leishmania amazonensis: promastigote
Protocol: Experiments including in vitro activity assays of isolated compounds 1–3 were performed against the promastigote and amastigote stages of Leishmania amazonensis (MHOM/BR/77/LTB0016) and the epimastigote stage of Trypanosoma cruzi (Y strain). Promastigotes of L. amazonensis were cultured in Schneider’s medium (Sigma-Aldrich, St. Louis, MO, USA). Typanosoma cruzi strain Y was cultured in liver Infusion tryptose (LIT) medium.
The bioassay was performed using the AlamarBlue® method as previously described. Promastigotes of L. amazonensis were grown at 26 °C in RPMI 1640 modified medium (Gibco BRL Life Technologies Inc., Gaithersburg, MD, USA) and supplemented with 10% heat-inactivated fetal bovine serum (FBS). Cultures in the logarithmic phase were seeded in sterilized 96-well microtiter plates (Corning™, Corning, NY, USA) (10^6 parasites/ml) containing the samples dissolved in 1% DMSO at the suitable concentration to be tested in serial dilutions, and Leishmania medium (RPMI 1640) was used to reach a final volume of 200 μl per well; then 10% of AlamarBlue® was added to the entire plate. After an incubation of 72 h, the plate was checked visually using an inverted microscope, then analyzed using an Enspire multimode plate reader (PerkinElmer, Inc., Waltham, MA, USA) at excitation and emission wavelengths of 570 and 585 nm, respectively. Dose–response curves were plotted, and the concentration at which one half of the maximal inhibitory effect was obtained (IC50) was determined. The analyses were performed in triplicate.
Hoechst dye is a blue-fluorescent dye that stains condensed chromatin of apoptotic cells. To detect DNA condensation, the chromatin condensation/dead cell apoptosis kit was used (Invitrogen, Thermo Fisher Scientific, Waltham, MA, USA). Cells were incubated in the presence of the compounds to be tested at IC90. The IC90 values were determined using nonlinear regression of the AlamarBlue® curve. After 24 h of incubation, cells were harvested and resuspended in medium, following which 1 μl of Hoechst 33342 stock solution was added to parasites and incubated for 20 min. Results were analyzed by cell imaging using the Evos FL cell imaging system (Thermo Fisher Scientific). The experiments were repeated using a double-stain apoptosis detection kit (Hoechst 33342/PI; Thermo Fisher Scientific). […] A positive control was also tested: miltefosine (L. amazonensis) and benznidazole (T. cruzi).

SMILES | decrease in mitochondrial potential [1] | IC50 [2] | IC90 [2] | IC50 [3] | IC90 [3]
CC(C)=CCC[C@](C)(O)[C@@H]1CC[C@@H](C)[C@@H]2CC=C(C)[C@H]2[C@@H]1O [Compound 1, pachydictyol C] | 34.0% | 13.1 ± 3.62 µM | 75.4 µM | 18.9 ± 5.28 µM | 39.5 µM
C=C(C)[C@H]1CC[C@]2(C)C[C@@H]3O[C@@]3(C)CC/C=C(\C)CC[C@@H]12 [Compound 3, 3,4-epoxy-7,18-dolabelladiene] | > 80% | 35.3 ± 4.09 µM | 140 µM | – | 74.9 µM
C=C1CC[C@@H]([C@@](C)(O)CCC=C(C)C)[C@@H](O)[C@@H]2C(C)=CC[C@@H]12 [Compound 2, dictyol E] | 40.7% | 18.3 ± 0.91 µM | 104 µM | 18.9 ± 0.42 µM | 34.9 µM
